EP2415863A1, “Mutant glucose oxidase” (B.R.A.I.N., priority 2010, dated 2012)

Experiments:
Type in all cases: biochemical
[1] = molecular target: T1, Aspergillus niger glucose oxidase (GOx) parent mutant B11, T30V, I94V, SEQ ID NO: 5 (Aspergillus niger, UniProt P13006, I116V/T52V); experiment: Kinetic constants by ABTS assay, parent GOx B11; conditions: as restated in the description text
T1 construct: made in house; host or cells: Saccharomyces cerevisiae (pYES2 plasmid B11 GOx)
Description: (§1) For detection of GOx activity the ABTS assay was used. 2,2'-azino-bis(3-ethylbenzthiazoline-6-sulphonic acid (ABTS) is commonly used as a substrate with hydrogen peroxide for a peroxidase generating enzyme. Its use allows the reaction kinetics of peroxidases to be followed, to indirectly follow the reaction kinetics of a hydrogen peroxide-producing enzyme or to quantify the amount of hydrogen peroxide in a sample [vanGijlswijk, R.P.M., et al., Fluorochrome-labeled tyramides: Use in immunocytochemistry and fluorescence in situ hybridization. Journal of Histochemistry & Cytochemistry, 1997. 45(3): p. 375-382].
(§2) The kinetic constants were determined using the Specord 200 from (Analytik Jena, Germany) and the ABTS assay [Zhu, Z.W., et al. 2006, Making glucose oxidase fit for biofuel cell applications by directed protein evolution. Biosensors & Bioelectronics, 21(11): 2046-2051]. The measurements were performed in 1 ml of reaction volume and 1 cm light pathway cuvettes, using 2.5, 5, 10, 25, 50 and 100 mM glucose. The data were fitted using Origin 6 (OriginLab Corporation, Northampton).

[2] = molecular target: T2, Aspergillus niger glucose oxidase (GOx) variant M12, N2Y, K13E, T30V, I94V, K152R, SEQ ID NO: 1 (Aspergillus niger, UniProt P13006, I116V/K174R/K35E/N24Y/T52V); experiment: Kinetic constants by ABTS assay, GOx mutant M12; conditions: as restated in the description text
T2 construct: made in house; host or cells: Saccharomyces cerevisiae (pYES2)
T2 sequence (P13006 23-605 N24Y/K35E/T52V/I116V/K174R limits assumed): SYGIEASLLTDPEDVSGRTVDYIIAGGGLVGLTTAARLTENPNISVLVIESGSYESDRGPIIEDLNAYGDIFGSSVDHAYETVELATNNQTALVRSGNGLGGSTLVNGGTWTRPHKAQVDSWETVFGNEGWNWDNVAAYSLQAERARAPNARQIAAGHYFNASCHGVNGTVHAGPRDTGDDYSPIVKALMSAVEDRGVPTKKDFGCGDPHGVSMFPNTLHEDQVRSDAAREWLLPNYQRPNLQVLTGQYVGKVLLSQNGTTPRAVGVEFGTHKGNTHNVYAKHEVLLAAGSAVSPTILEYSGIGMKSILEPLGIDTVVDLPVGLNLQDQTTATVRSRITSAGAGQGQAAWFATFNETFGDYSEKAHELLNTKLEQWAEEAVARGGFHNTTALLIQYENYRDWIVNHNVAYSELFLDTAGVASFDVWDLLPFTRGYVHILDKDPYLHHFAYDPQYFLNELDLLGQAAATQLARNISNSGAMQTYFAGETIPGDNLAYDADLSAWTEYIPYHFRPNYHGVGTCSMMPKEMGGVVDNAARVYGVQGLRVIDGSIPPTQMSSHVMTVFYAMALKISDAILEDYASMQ
Description: as §1, §2

[3] = molecular target: T3, Aspergillus niger glucose oxidase (GOx), wild type, SEQ ID NO: 3 (Aspergillus niger, UniProt P13006); experiment: Kinetic constants by ABTS assay, wt GOx; conditions: 2.5-100 mM glucose
T3 construct: made in house; host or cells: Saccharomyces cerevisiae (pYES2 vector)
T3 sequence (P13006 23-605 limits assumed): as the sequence (P13006 23-605 N24Y/K35E/T52V/I116V/K174R limits assumed) above, with Y2N, E13K, V30T, V94I, R152K counted along it
Description: as §1, §2

T1 sequence (P13006 23-605 T52V/I116V limits assumed): as the sequence (P13006 23-605 N24Y/K35E/T52V/I116V/K174R limits assumed) above, with Y2N, E13K, R152K counted along it

## OC[C@H]1OC(O)[C@H](O)[C@@H](O)[C@@H]1O (stereo partly drawn) [glucose]
[1]
  kcat: 80 s'
[2]
  kcat: 150 s⁻¹
[3]
  kcat: 54.8 s'
